Experimental data taken from patent publication US10080739B2, “Aryl imidazoles and their use as anti-cancer agents” (Aptose Biosciences Inc., priority 2003, dated 2018).

Legend:
[1] = system: panel of 60 human cancer cell lines; experiment: NCI/DTP in vitro anticancer screen, 60 cell lines; assay type: cell-based; settings: NCI panel of 60 human cancer cell lines, value per compound (FIG. 10A)
Experimental: The twenty-three compounds of Formula I shown below were evaluated for their antiproliferative effects in a panel of 60 human cancer cell lines as part of the in vitro anticancer screening services provided by the DTP (Developmental Therapeutics Program) of the US National Cancer Institute (NCI) U.S. National Cancer Institute (NCI) of the National Institutes of Health (NIH) in […], Md.
The NCI conducts a standard 48/72 hour 60 cell line assay and an in vitro time course assay as described in Alley et al. (Cancer Res (1988) 48:589). In the standard 60 cell line assay, a minimum of 5 concentrations of the test compound are tested at 10-fold dilutions against 60 cell lines and cell growth is assayed at 48 and 72 hours using a sulphorhodamine B assay. For the time course analysis, tumour cells are treated with the test compound at various time points, then washed and grown in medium free of the test compound until the end of the experiment at 144 hrs. This assay employs 20% FBS to better approximate the minimum c×t (concentrations and times) test compound exposure conditions that are required to achieve activity in vivo. Cell growth is quantified by an MTT assay (similar to the XTT assay described above) and the concentration of the test compound required for growth inhibition is determined. […]

[2] = NCI/DTP data; cited from earlier work
[3] = system: Saccharmyces cerevisiae strains that have mutations in genes related to cell cycle control and DNA repair damage; settings: panel of six yeast strains, single concentration; NCI/DTP data; cited from earlier work
[4] = system: HT29 colon adenocarcinoma cells; experiment: morphological changes (vacuoles), HT29; assay type: cell-based, human; settings: treatment for 24 hours
Source text: These vacuoles are not formed in DMSO- or doxorubicin-treated cells. Moreover, the nuclear membrane is no longer evident in the phase-contrast images of cells treated with compound 45, even though the nucleus is still intact, as shown by DAPI staining.

Cc1[nH]c2ccccc2c1-c1nc2c3cccnc3c3ncccc3c2[nH]1 [Compound 90]
GI50 (growth inhibition by 50%) [1]: most effective compound

Cc1ccccc1-c1nc2c3ccccc3c3ccccc3c2[nH]1 [NCI #338970]
activity in the In Vivo Anticancer Drug Screen [2]: None of these three compounds showed any activity | activity in Stage0 testing in the Yeast Anticancer Drug Screen [3]: active

COc1cccc2c1C(=O)c1c(O)c3c(c(O)c1C2=O)C[C@@](O)(C(=O)CO)C[C@@H]3O[C@H]1C[C@H](N)[C@H](O)[C@H](C)O1 [doxorubicin, reference compound]
formation of vacuoles [4]: not formed
